Laboratory results from patent US12252524B2, “GIP/GLP1 co-agonist compounds” (Eli Lilly and Company, priority 2018, dated 2025).
Numbered stars: 1 amine (or outer) side, 2 acyl side, 3 side chain; on linkers, the order of the positions; unused ones are H or OH. Square brackets hold non-standard residues; d marks the D form. Side chains are listed from the residue outwards. Peptide text beside a SMILES is read from it. * marks the point of attachment. C20 diacid = O=C(O)CCCCCCCCCCCCCCCCCCC(=O)*; C18 diacid = O=C(O)CCCCCCCCCCCCCCCCC(=O)*; αMePhe(2-F) = C[C@](N)(Cc1ccccc1F)C(=O)O; γGlu = O=C(O)[C@H](CCC(=O)[*:2])N[*:1]; αMeY = C[C@](N)(Cc1ccc(O)cc1)C(=O)O; αMeL = CC(C)C[C@](C)(N)C(=O)O; Orn = NCCC[C@H](N)C(=O)O; AEEA = NCCOCCOCC(=O)O; Aib = CC(C)(N)C(=O)O

How the values were obtained:
[1] = target: T1, gastric inhibitory peptide receptor (GIPR) (Homo sapiens, UniProt P48546); test: cAMP pharmacological functional assay in presence of casein, hGIPR; format: cell-based; conditions: HEK293 cells expressing hGIPR, 0.1% Casein, geometric mean; read-out: hGIPR cAMP Rel EC50 nM (SEM, n)
T1 sequence (P48546 22-466): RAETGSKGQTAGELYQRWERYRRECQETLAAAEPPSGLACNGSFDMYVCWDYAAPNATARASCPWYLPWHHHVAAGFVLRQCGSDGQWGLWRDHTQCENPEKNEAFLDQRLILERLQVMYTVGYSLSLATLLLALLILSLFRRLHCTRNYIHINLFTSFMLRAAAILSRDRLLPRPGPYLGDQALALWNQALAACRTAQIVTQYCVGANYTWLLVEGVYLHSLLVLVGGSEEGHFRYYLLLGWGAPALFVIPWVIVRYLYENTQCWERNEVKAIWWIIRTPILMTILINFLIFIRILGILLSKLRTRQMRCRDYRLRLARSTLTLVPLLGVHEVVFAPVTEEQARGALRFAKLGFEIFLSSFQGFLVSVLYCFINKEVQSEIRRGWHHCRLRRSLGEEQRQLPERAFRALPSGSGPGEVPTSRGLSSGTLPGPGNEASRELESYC

[2] = target: human GLP-1 receptor (GLP-1R) (Homo sapiens, UniProt P43220); test: cAMP pharmacological functional assay in presence of casein, hGLP-1R; format: cell-based; conditions: HEK293 cells expressing hGLP-1R, 0.1% Casein, geometric mean; read-out: hGLP1R cAMP Rel EC50 nM (SEM, n)
Chain of human GLP-1 receptor (GLP-1R) (P43220 24-463): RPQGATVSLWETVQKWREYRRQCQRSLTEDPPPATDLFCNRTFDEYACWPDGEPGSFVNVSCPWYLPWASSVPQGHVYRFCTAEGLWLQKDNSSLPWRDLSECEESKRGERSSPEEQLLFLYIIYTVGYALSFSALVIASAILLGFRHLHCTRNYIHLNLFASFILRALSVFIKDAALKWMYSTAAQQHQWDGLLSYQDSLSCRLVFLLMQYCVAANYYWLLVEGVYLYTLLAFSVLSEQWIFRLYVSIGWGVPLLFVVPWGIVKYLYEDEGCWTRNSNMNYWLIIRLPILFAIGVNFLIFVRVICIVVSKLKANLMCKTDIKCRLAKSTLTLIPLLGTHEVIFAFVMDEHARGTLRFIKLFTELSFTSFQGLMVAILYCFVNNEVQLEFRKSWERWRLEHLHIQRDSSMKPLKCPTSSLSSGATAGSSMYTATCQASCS

| SMILES | EC50 [1] [nM] | EC50 [2] [nM] |
| --- | --- | --- |
| CC[C@H](C)[C@H](NC(=O)[C@H](CC(C)C)NC(=O)[C@](C)(Cc1ccc(O)cc1)NC(=O)[C@@H](CCC(=O)O)NC(=O)[C@@H](NC(=O)[C@H](Cc1ccccc1)NC(=O)[C@@H](NC(=O)C(C)(C)NC(=O)[C@H](CCC(N)=O)NC(=O)[C@H](C)NC(=O)[C@H](CCCCNC(=O)COCCOCCNC(=O)COCCOCCNC(=O)CC[C@H](NC(=O)CCCCCCCCCCCCCCCCC(=O)O)C(=O)O)NC(=O)[C@H](CCCN)NC(=O)[C@H](CC(=O)O)NC(=O)[C@H](CC(C)C)NC(=O)[C@](C)(CC(C)C)NC(=O)[C@@H](NC(=O)[C@H](CO)NC(=O)[C@H](C)NC(=O)[C@H](CC(=O)O)NC(=O)[C@H](CO)NC(=O)[C@@H](NC(=O)[C@](C)(Cc1ccccc1F)NC(=O)[C@@H](NC(=O)CNC(=O)[C@H](CCC(=O)O)NC(=O)C(C)(C)NC(=O)[C@@H](N)Cc1ccc(O)cc1)[C@@H](C)O)[C@@H](C)O)[C@@H](C)CC)[C@@H](C)O)[C@@H](C)CC)C(=O)N[C@@H](CCC(=O)O)C(=O)NCC(=O)NCC(=O)N1CCC[C@H]1C(=O)N[C@@H](CO)C(=O)N[C@@H](CO)C(=O)NCC(=O)N[C@@H](C)C(=O)N1CCC[C@H]1C(=O)N1CCC[C@H]1C(=O)N1CCC[C@H]1C(=O)N[C@@H](CO)C(N)=O [Example 245] (H-Y[Aib]EGT[αMePhe(2-F)]TSDASI[αMeL]LD[Orn]K([AEEA-AEEA-γGlu-C18 diacid])AQ[Aib]TFI[dE][αMeY]LIEGGPSSGAPPPS-NH2) | 0.0552 | 0.0222 |
| CC[C@H](C)[C@H](NC(=O)[C@H](CC(C)C)NC(=O)[C@H](Cc1ccc(O)cc1)NC(=O)[C@H](CCC(=O)O)NC(=O)[C@@H](NC(=O)[C@H](Cc1ccccc1)NC(=O)[C@H](C)NC(=O)[C@H](CCCCN)NC(=O)[C@H](CCC(N)=O)NC(=O)[C@H](C)NC(=O)[C@H](CCCCNC(=O)COCCOCCNC(=O)COCCOCCNC(=O)CC[C@H](NC(=O)CCCCCCCCCCCCCCCCCCC(=O)O)C(=O)O)NC(=O)[C@H](CCCCN)NC(=O)[C@H](CC(=O)O)NC(=O)[C@H](CC(C)C)NC(=O)[C@H](CC(C)C)NC(=O)[C@@H](NC(=O)[C@H](CO)NC(=O)[C@H](Cc1ccc(O)cc1)NC(=O)[C@H](CC(=O)O)NC(=O)[C@H](CO)NC(=O)[C@@H](NC(=O)[C@H](Cc1ccccc1)NC(=O)[C@@H](NC(=O)CNC(=O)[C@H](CCC(=O)O)NC(=O)C(C)(C)NC(=O)[C@@H](N)Cc1ccc(O)cc1)[C@@H](C)O)[C@@H](C)O)[C@@H](C)CC)[C@@H](C)CC)C(=O)N[C@@H](CCC(=O)O)C(=O)NCC(=O)NCC(=O)N1CCC[C@H]1C(=O)N[C@@H](CO)C(=O)N[C@@H](CO)C(=O)NCC(=O)N[C@@H](C)C(=O)N1CCC[C@H]1C(=O)N1CCC[C@H]1C(=O)N1CCC[C@H]1C(=O)N[C@@H](CO)C(N)=O [Example 256] | 0.643 | 0.0506 |
| CC[C@H](C)[C@H](NC(=O)[C@H](CC(C)C)NC(=O)[C@H](Cc1ccc(O)cc1)NC(=O)[C@H](CCC(=O)O)NC(=O)[C@@H](NC(=O)[C@H](Cc1ccccc1)NC(=O)[C@H](C)NC(=O)[C@H](CCCNC(=N)N)NC(=O)[C@H](CCC(N)=O)NC(=O)[C@H](C)NC(=O)[C@H](CCCCNC(=O)COCCOCCNC(=O)COCCOCCNC(=O)CC[C@H](NC(=O)CCCCCCCCCCCCCCCCCCC(=O)O)C(=O)O)NC(=O)[C@H](CCCCN)NC(=O)[C@H](CC(=O)O)NC(=O)[C@H](CC(C)C)NC(=O)[C@H](CC(C)C)NC(=O)[C@@H](NC(=O)[C@H](CO)NC(=O)[C@H](Cc1ccc(O)cc1)NC(=O)[C@H](CC(=O)O)NC(=O)[C@H](CO)NC(=O)[C@@H](NC(=O)[C@H](Cc1ccccc1)NC(=O)[C@@H](NC(=O)CNC(=O)[C@H](CCC(=O)O)NC(=O)C(C)(C)NC(=O)[C@@H](N)Cc1ccc(O)cc1)[C@@H](C)O)[C@@H](C)O)[C@@H](C)CC)[C@@H](C)CC)C(=O)N[C@@H](CCC(=O)O)C(=O)NCC(=O)NCC(=O)N1CCC[C@H]1C(=O)N[C@@H](CO)C(=O)N[C@@H](CO)C(=O)NCC(=O)N[C@@H](C)C(=O)N1CCC[C@H]1C(=O)N1CCC[C@H]1C(=O)N1CCC[C@H]1C(=O)N[C@@H](CO)C(N)=O [Example 257] (H-Y[Aib]EGTFTSDYSILLDKK([AEEA-AEEA-γGlu-C20 diacid])AQRAFIEYLIEGGPSSGAPPPS-NH2; N-terminus assumed) | 0.474 | 0.0779 |
| CC[C@H](C)[C@H](NC(=O)[C@H](CC(C)C)NC(=O)[C@H](Cc1ccc(O)cc1)NC(=O)[C@H](CCC(=O)O)NC(=O)[C@@H](NC(=O)[C@H](Cc1ccccc1)NC(=O)[C@H](C)NC(=O)[C@H](CCCCN)NC(=O)[C@H](CCC(N)=O)NC(=O)[C@H](C)NC(=O)[C@H](CCCCNC(=O)COCCOCCNC(=O)COCCOCCNC(=O)CC[C@H](NC(=O)CCCCCCCCCCCCCCCCCCC(=O)O)C(=O)O)NC(=O)[C@H](CCC(=O)O)NC(=O)[C@H](CC(=O)O)NC(=O)[C@H](CC(C)C)NC(=O)[C@H](CC(C)C)NC(=O)[C@@H](NC(=O)[C@H](CO)NC(=O)[C@H](Cc1ccc(O)cc1)NC(=O)[C@H](CC(=O)O)NC(=O)[C@H](CO)NC(=O)[C@@H](NC(=O)[C@H](Cc1ccccc1)NC(=O)[C@@H](NC(=O)CNC(=O)[C@H](CCC(=O)O)NC(=O)C(C)(C)NC(=O)[C@@H](N)Cc1ccc(O)cc1)[C@@H](C)O)[C@@H](C)O)[C@@H](C)CC)[C@@H](C)CC)C(=O)N[C@@H](CCC(=O)O)C(=O)NCC(=O)NCC(=O)N1CCC[C@H]1C(=O)N[C@@H](CO)C(=O)N[C@@H](CO)C(=O)NCC(=O)N[C@@H](C)C(=O)N1CCC[C@H]1C(=O)N1CCC[C@H]1C(=O)N1CCC[C@H]1C(=O)N[C@@H](CO)C(N)=O [Example 258] (H-Y[Aib]EGTFTSDYSILLDEK([AEEA-AEEA-γGlu-C20 diacid])AQKAFIEYLIEGGPSSGAPPPS-NH2; N-terminus assumed) | 2.43 | 0.174 |
| CC[C@H](C)[C@H](NC(=O)[C@H](CC(C)C)NC(=O)[C@H](Cc1ccc(O)cc1)NC(=O)[C@H](CCC(=O)O)NC(=O)[C@@H](NC(=O)[C@H](Cc1ccccc1)NC(=O)[C@H](C)NC(=O)C(C)(C)NC(=O)[C@H](CCC(N)=O)NC(=O)[C@H](C)NC(=O)[C@H](CCCCNC(=O)COCCOCCNC(=O)COCCOCCNC(=O)CC[C@H](NC(=O)CCCCCCCCCCCCCCCCCCC(=O)O)C(=O)O)NC(=O)[C@H](CCC(=O)O)NC(=O)[C@H](CC(=O)O)NC(=O)[C@H](CC(C)C)NC(=O)[C@H](CC(C)C)NC(=O)[C@@H](NC(=O)[C@H](CO)NC(=O)[C@H](Cc1ccc(O)cc1)NC(=O)[C@H](CC(=O)O)NC(=O)[C@H](CO)NC(=O)[C@@H](NC(=O)[C@H](Cc1ccccc1)NC(=O)[C@@H](NC(=O)CNC(=O)[C@H](CCC(=O)O)NC(=O)C(C)(C)NC(=O)[C@@H](N)Cc1ccc(O)cc1)[C@@H](C)O)[C@@H](C)O)[C@@H](C)CC)[C@@H](C)CC)C(=O)N[C@@H](CCC(=O)O)C(=O)NCC(=O)NCC(=O)N1CCC[C@H]1C(=O)N[C@@H](CO)C(=O)N[C@@H](CO)C(=O)NCC(=O)N[C@@H](C)C(=O)N1CCC[C@H]1C(=O)N1CCC[C@H]1C(=O)N1CCC[C@H]1C(=O)N[C@@H](CO)C(N)=O [Example 259] (H-Y[Aib]EGTFTSDYSILLDEK([AEEA-AEEA-γGlu-C20 diacid])AQ[Aib]AFIEYLIEGGPSSGAPPPS-NH2; N-terminus assumed) | 0.257 | 0.145 |
| CC[C@H](C)[C@H](NC(=O)[C@H](CC(C)C)NC(=O)[C@H](Cc1ccc(O)cc1)NC(=O)[C@H](CCC(=O)O)NC(=O)[C@@H](NC(=O)[C@H](Cc1ccccc1)NC(=O)[C@H](C)NC(=O)C(C)(C)NC(=O)[C@H](CCC(N)=O)NC(=O)[C@H](C)NC(=O)[C@H](CCCCNC(=O)COCCOCCNC(=O)COCCOCCNC(=O)CC[C@H](NC(=O)CCCCCCCCCCCCCCCCCCC(=O)O)C(=O)O)NC(=O)[C@H](CCCCN)NC(=O)[C@H](CC(=O)O)NC(=O)[C@H](CC(C)C)NC(=O)[C@H](CC(C)C)NC(=O)[C@@H](NC(=O)[C@H](CO)NC(=O)[C@H](Cc1c[nH]cn1)NC(=O)[C@H](CC(=O)O)NC(=O)[C@H](CO)NC(=O)[C@@H](NC(=O)[C@H](Cc1ccccc1)NC(=O)[C@@H](NC(=O)CNC(=O)[C@H](CCC(=O)O)NC(=O)C(C)(C)NC(=O)[C@@H](N)Cc1ccc(O)cc1)[C@@H](C)O)[C@@H](C)O)[C@@H](C)CC)[C@@H](C)CC)C(=O)N[C@@H](CCC(=O)O)C(=O)NCC(=O)NCC(=O)N1CCC[C@H]1C(=O)N[C@@H](CO)C(=O)N[C@@H](CO)C(=O)NCC(=O)N[C@@H](C)C(=O)N1CCC[C@H]1C(=O)N1CCC[C@H]1C(=O)N1CCC[C@H]1C(=O)N[C@@H](CO)C(N)=O [Example 260] (H-Y[Aib]EGTFTSDHSILLDKK([AEEA-AEEA-γGlu-C20 diacid])AQ[Aib]AFIEYLIEGGPSSGAPPPS-NH2; N-terminus assumed) | 0.617 | 0.408 |
